Legend:
[1] = system: Polistes jokahamae jokahamae Radoszkowski worker group; experiment: Spray on worker group on nest surface; type: in vivo
Protocol: (§1) The experiment involving a worker group of Polistes jokahamae jokahamae Radoszkowski on the exterior wall of a nest found in the campus of Faculty of Agriculture, Kochi University, located on 200 Otsu, Monobe, Nankoku City, Kochi Prefecture, was conducted on Jul. 13, 2015, and the experiment involving a worker of P. jokahamae jokahamae Radoszkowski which collected sap bled from sucking mark by adult Cryptotympana facialis of Zelkova tree stem planted in a private house in Fuseishi-cho, Takamatsu City, Kagawa Prefecture was conducted on July 19 to 22, 2015. In addition, the experiment involving a worker group of P. chinensis antennalis Pe'rez on the exterior wall of a nest found on a branch of a cheesewood planted at a bank of Noda pond located at Fuseishi-cho, Takamatsu City, Kagawa Prefecture was conducted on Jul. 30, 2015.
(§2) The experiment was conducted in accordance with the above-described Example 1(1) involving a Vespa mandarinia worker, distilled water as a control example spray and benzyl alcohol as a test liquid example spray were sequentially sprayed on a test object group or a test object worker by using a sprayer, and the behavior from immediately after spraying up to 1 minute later was respectively recorded.

[2] = system: P. jokahamae jokahamae Radoszkowski worker; experiment: Spray on worker collecting Zelkova sap; type: in vivo, Polistes jokahamae jokahamae Radoszkowski
Protocol: as §1, §2

[3] = system: P. chinensis antennalis Pe'rez worker group; experiment: Spray on worker group on nest; type: in vivo; conditions: 9:02, 1 minute after spraying benzyl alcohol; 32 workers before
Protocol: as §1
The experiment was conducted in accordance with the above-described Example 1(1) involving a Vespa mandarinia worker, distilled water as a control example spray and benzyl alcohol as a test liquid example spray were sequentially sprayed on a test object group or a test object worker by using a sprayer, and the behavior from immediately after spraying up to 1 minute later was respectively recorded. […]

[4] = system: Vespa simillima xanthoptera Cameron worker; experiment: Black ball nest disturbance, Experiment 1; type: in vivo; conditions: previously attacked ball
Protocol: The experiment was also conducted with utilizing a nest of Vespa simillima xanthoptera Cameron in Kagawa Prefecture Kinbuchi Forest Park in Takamatsu City Kagawa Prefecture on Oct. 24, 2014. Since the nest was also built in the ground, the nest could not be found except for the entrance thereof.
As the above-described Example 2(1), the nest entrance was disturbed by vibrating the black ball in contact with the nest entrance for about 10 seconds. The total number of attacking worker could not be counted, since the number of the worker which attacked to the control black ball using distilled water was much larger than that of the control in the experiment for Vespa mandarinia and the worker moved very rapidly. Thus, the video image was stopped every 30 seconds from the end of the nest entrance disturbance and the number of the worker which alighted on the hemispherical surface of the black ball for attack was counted. During 120 seconds for the experiment, the workers continued to strongly attack to the black ball as the workers constantly flew to and alighted on the black ball for attack and the worker number was not decreased. Such an attack was continued even after the end of the experiment at which the tip of the rod was moved to a place 5 m or more away from the nest, and the attack was finally not observed after about 20 minutes passed from the experiment was finished. Then, 2-phenylethanol was sprayed on the black ball to which Vespa simillima xanthoptera attacked as the test liquid example and the nest entrance was disturbed using the black ball. Although the worker which tried to come close to the black ball was observed, even the closest worker changed the direction in the air 10 to 20 cm from the surface of the black ball and flew away, and no worker which flew to and alighted on the surface of the black ball was found.

Row | SMILES | Number of P. jokahamae jokahamae Radoszkowski on nest surface ([1]; 10:02, 1 minute after spraying benzyl alcohol once, 11 workers before) | time within which all workers flew away from the nest after spraying ([1]; group of 11 workers) [s] | Effective (number of worker) ([2]; 10 workers collecting sap) | No response (number of worker) ([2]; 10 workers collecting sap) | time of flapping behavior before the worker flew away ([2]; 10 workers, or without flapping) [s] | Number of P. chinensis antennalis Pe'rez on nest [3] | number of worker alighted on hemispherical surface of black ball for attack ([4]; 30 s after disturbance) | number of worker alighted on hemispherical surface of black ball for attack ([4]; 60 s after disturbance) | number of worker alighted on hemispherical surface of black ball for attack ([4]; 90 s after disturbance) | number of worker alighted on hemispherical surface of black ball for attack ([4]; 120 s after disturbance)
1 | OCc1ccccc1 [Benzyl alcohol, benzyl alcohol] | 0 | ≤ 10 | 10 | 0 | ≤ 1 | 0 | – | – | – | –
2 | OCCc1ccccc1 [2-Phenylethanol, 2-phenylethanol] | – | – | – | – | – | – | 0 | 0 | 0 | 0

Reference: patent US11470844B2, “Vespidae wasp repellent” (KINP CO., LTD, priority 2015, dated 2022)
